# Experimental data published in article PMC7966678, “GMP-compliant fully automated radiosynthesis of [^18F]FEPPA for PET/MRI imaging of regional brain TSPO expression” (EJNMMI Research, 2021).
# Experiments:
# [1] = biological target: T1, TSPO (Mus musculus, UniProt P50637); test: In vivo dynamic PET/MR whole-body biodistribution of [^18F]FEPPA in control and LPS-injected mice; design: species or system C57BL/6 mice
# T1 construct: from tissue; host or cells: living C57BL6 mice: brain regions, heart, lung, liver, spleen, kidney, blood (in vivo PET/MR)
# Experimental: (§1) The mice in the LPS group (6 mice for each dose) were intraperitoneally injected with a single dose of 0.625, 1.25, 2.5 or 5 mg/kg LPS (Escherichia coli, strain O111:B4; Calbiochem, San Diego, CA, USA) to induce systemic inflammation. The control group were intraperitoneally injected with 0.9% NaCl. In vivo or in vitro assessments were performed 24 h after administration of LPS.
# Before PET/MR imaging acquisition, the mice were anesthetized by passive inhalation of a mixture of isoflurane and oxygen (5% isoflurane for induction and 2% for maintenance). A fiber-optic temperature probe was inserted into the rectum to monitor the core temperature of the mice, then each animal was gently positioned in the MR cradle and the MRI coil was secured around the head. A warm water blanket was positioned to maintain the core temperature of the animals, then the mice were positioned inside the scanner. The depth of anesthesia, pulse and respiration were monitored constantly during the imaging procedure; in the unlikely event that an animal regained consciousness, the scanning was immediately stopped and the animal was removed from the scanner, humanely euthanized and eliminated from the study.
# (§2) The animals (n = 6 per dose of LPS; n = 6 controls) were injected with [^18F]FEPPA (10.09 ± 1.38 MBq; […]) via the tail vein. Dynamic PET images were obtained using a 7 T PETMR Inline (Bruker, Rheinstetten, Germany) for 30 min with the energy window set to 350–650 keV. Images were acquired every 1 s for 10 images, 10 s for five images, 60 s for nine images, 300 s for two images and 600 s for 1 image; a total of 27 frames were collected.
# (§3) The PET images were reconstructed through three-dimensional ordered-subset expectation maximization (3D-OSEM). The regional radioactivity concentration (KBq/cc) of [^18F]FEPPA was estimated based on the mean pixel values within the volumes of interest (VOI) corresponding to MR images of various regions of the brain. Image data were decay-corrected to the injection time. The radioactivity concentration (KBq/cc) of the VOI was converted to the standard uptake value (SUV), and the mean and standard error of the mean (SEM) radiotracer accumulation values were calculated for various tissues. PET/MR data were analyzed using PMOD 4.0 software (PMOD Technologies Ltd., Zurich, Switzerland).
# [2] = biological target: T1, TSPO; test: In vivo PET/MR brain region-specific uptake and pharmacokinetics (SUV, VT by Logan graphical analysis, AUC); design: species or system C57BL/6 mice; details: for Brain [^18F]FEPPA uptake vs LPS dose: 24 h after injection
# Experimental: as §1, §2
# T1 and T2 MRI were performed to determine the anatomical structure of the brain. The MRI sequences included 0.5-mm thickness coronal T2 Turbo RARE high-resolution images (TR = 3455 ms, TE = 36 ms, matrix = 256 × 256, average = 8, slice number = 30).
# as §3
# The Logan graphical method for reversible uptake was used to assess whether [^18F]FEPPA PET/MRI [30] could be used to detect differences in the expression of TSPO. Cardiac blood was used as the reference tissue. The slope of the linear portion of the Logan plot represents the total distribution (VT). If metabolite-corrected plasma TACs are not available, a reference region TAC, Cp(t), can be used instead of the plasma TAC. Then, the slope of the linear portion of the plot can be calculated using (Eq. 1)1 ∫0tCTissueτdr/CTissuet=K∫0tCpτdr/CTissuet+V
# [3] = Stability of final product (radiochemical purity by analytical HPLC); format: physicochemical; details: 6 h after the end of synthesis; manual and automated synthesis
# Experimental: Radiochemical and chemical purity, stability and molar activity were assessed by analytical HPLC. The molar activity of the radiotracer was quantified by measuring the radioactivity injected and deriving the concentration of FEPPA in the sample by UV detection.
# The identity of the labeled compound [^18F]FEPPA was confirmed by co-injection with a non-radioactive FEPPA standard. The concentration of FEPPA in the radioactive sample was obtained from the UV-peak area ratio for the radioactive product and the standard solution. Analytical HPLC was performed on a Nova-pak C18 column (300 × 3.9 mm, 4 μm) in 50 mM (NH4)H2PO4:CH3CN (1:1) at 1 mL/min using a Waters Corporation 2695 pump with a multi-wavelength 2489 UV Detector (Waters Corporation) in series with a Bioscan FC-4000 dual BGO coincidence detector (Bioscan, Inc., Washington, DC, USA). A delay time of 12 s was observed between the two detectors.
# [4] = test system: TSPO; design: method as in PMID 18355686, PMID 24939192; details: higher affinity than [^11C]PK-11195; cited from earlier work
# [5] = design: method as in PMID 29875332; details: cited from earlier work
smiles,measurement,setting,value
"CC(=O)N(Cc1ccccc1OCC[18F])c1cnccc1Oc1ccccc1 [[^18F]FEPPA, [^18F]-N-(2-(2-fluoroethoxy)benzyl)-N-(4-phenoxypyridin-3-yl) acetamide]","Increase of [^18F]FEPPA in heart, LPS-induced group vs control","[1]; LPS 5 mg/kg, 24 h",~ 3 folds
same,"Increase of [^18F]FEPPA in lung, LPS-induced group vs control","[1]; LPS 5 mg/kg, 24 h",~ 3 folds
same,"Accumulated radioactivity (SUV), Blood","[1]; LPS (5 mg/kg i.p., 24 h) mice",1.29 ± 0.128 SUV
same,"Accumulated radioactivity (SUV), Heart muscle","[1]; LPS (5 mg/kg i.p., 24 h) mice",3.60 ± 0.722 SUV
same,"Accumulated radioactivity (SUV), Kidney","[1]; LPS (5 mg/kg i.p., 24 h) mice",5.86 ± 0.504 SUV
same,"Accumulated radioactivity (SUV), Liver","[1]; LPS (5 mg/kg i.p., 24 h) mice",1.60 ± 0.097 SUV
same,"Accumulated radioactivity (SUV), Spleen","[1]; LPS (5 mg/kg i.p., 24 h) mice",0.96 ± 0.443 SUV
same,"Accumulated radioactivity (SUV), Whole brain","[1]; LPS (5 mg/kg i.p., 24 h) mice",0.76 ± 0.014 SUV
same,Time of peak radioactivity in heart muscle,[1]; after injection,≤ 3 min
same,Time to steady state in heart muscle and lungs,[1]; after injection of [^18F]FEPPA,10 min
same,Blood clearance kinetics,"[1]; control group, after i.v. injection",biexponential
same,"Accumulated radioactivity (SUV), Heart muscle",[1]; control mice,1.24 ± 0.06 SUV
same,"Accumulated radioactivity (SUV), Kidney",[1]; control mice,4.80 ± 0.57 SUV
same,"Accumulated radioactivity (SUV), Liver",[1]; control mice,1.48 ± 0.36 SUV
same,"Accumulated radioactivity (SUV), Lung",[1]; control mice,1.38 ± 0.08 SUV
same,"Accumulated radioactivity (SUV), Spleen",[1]; control mice,1.16 ± 0.32 SUV
same,"Accumulated radioactivity (SUV), Whole brain",[1]; control mice,0.48 ± 0.05 SUV
same,"Accumulated radioactivity (SUV), Blood","[1]; control mice, 30 min post-injection i.v.",1.29 ± 0.03 SUV
same,Time of peak accumulation in the lungs,[1]; post-injection,1 to 2 min
same,Brain [^18F]FEPPA uptake vs LPS dose,[2]; 5 mg/kg LPS,significantly higher uptake
same,"AUC (SUV·min, 0–30 min) ratio in brain, LPS vs control","[2]; LPS 5 mg/kg, 24 h",1.58 ± 0.09 fold
same,"VT (Logan graphical analysis) in brain, LPS vs control","[2]; LPS 5 mg/kg, 24 h, average of brain regions, cardiac blood as reference",1.25 ± 0.12 fold
same,"Average SUV ratio for all brain regions, LPS vs control","[2]; LPS 5 mg/kg, 24 h, brain",1.61 ± 0.1 fold
same,Brain [^18F]FEPPA uptake vs LPS dose,[2]; LPS dose ≦ 2.5 mg/kg,no significant difference
same,Time of peak radioactivity in brain regions,"[2]; control animals, followed by rapid washout",≤ 3 min
same,Radiochemical purity (stability of final product),[3],more than 99%
same,Affinity relative to [^11C]PK-11195,[4],18 fold
same,Parent fraction of unmetabolized [^18F]FEPPA in the brain (intact form),[5]; 30 min after injection,approximately 95%
same,Metabolite in plasma,[5]; 30 min imaging time-window,60%
